Among the data in US8541588B2, “Sulfonamide derivatives” (Pfizer Limited, priority 2009, dated 2013) are IC50 values, retold here.

pIC50: −log10 of the molar value.

T1 sequence (Q15858 whole entry): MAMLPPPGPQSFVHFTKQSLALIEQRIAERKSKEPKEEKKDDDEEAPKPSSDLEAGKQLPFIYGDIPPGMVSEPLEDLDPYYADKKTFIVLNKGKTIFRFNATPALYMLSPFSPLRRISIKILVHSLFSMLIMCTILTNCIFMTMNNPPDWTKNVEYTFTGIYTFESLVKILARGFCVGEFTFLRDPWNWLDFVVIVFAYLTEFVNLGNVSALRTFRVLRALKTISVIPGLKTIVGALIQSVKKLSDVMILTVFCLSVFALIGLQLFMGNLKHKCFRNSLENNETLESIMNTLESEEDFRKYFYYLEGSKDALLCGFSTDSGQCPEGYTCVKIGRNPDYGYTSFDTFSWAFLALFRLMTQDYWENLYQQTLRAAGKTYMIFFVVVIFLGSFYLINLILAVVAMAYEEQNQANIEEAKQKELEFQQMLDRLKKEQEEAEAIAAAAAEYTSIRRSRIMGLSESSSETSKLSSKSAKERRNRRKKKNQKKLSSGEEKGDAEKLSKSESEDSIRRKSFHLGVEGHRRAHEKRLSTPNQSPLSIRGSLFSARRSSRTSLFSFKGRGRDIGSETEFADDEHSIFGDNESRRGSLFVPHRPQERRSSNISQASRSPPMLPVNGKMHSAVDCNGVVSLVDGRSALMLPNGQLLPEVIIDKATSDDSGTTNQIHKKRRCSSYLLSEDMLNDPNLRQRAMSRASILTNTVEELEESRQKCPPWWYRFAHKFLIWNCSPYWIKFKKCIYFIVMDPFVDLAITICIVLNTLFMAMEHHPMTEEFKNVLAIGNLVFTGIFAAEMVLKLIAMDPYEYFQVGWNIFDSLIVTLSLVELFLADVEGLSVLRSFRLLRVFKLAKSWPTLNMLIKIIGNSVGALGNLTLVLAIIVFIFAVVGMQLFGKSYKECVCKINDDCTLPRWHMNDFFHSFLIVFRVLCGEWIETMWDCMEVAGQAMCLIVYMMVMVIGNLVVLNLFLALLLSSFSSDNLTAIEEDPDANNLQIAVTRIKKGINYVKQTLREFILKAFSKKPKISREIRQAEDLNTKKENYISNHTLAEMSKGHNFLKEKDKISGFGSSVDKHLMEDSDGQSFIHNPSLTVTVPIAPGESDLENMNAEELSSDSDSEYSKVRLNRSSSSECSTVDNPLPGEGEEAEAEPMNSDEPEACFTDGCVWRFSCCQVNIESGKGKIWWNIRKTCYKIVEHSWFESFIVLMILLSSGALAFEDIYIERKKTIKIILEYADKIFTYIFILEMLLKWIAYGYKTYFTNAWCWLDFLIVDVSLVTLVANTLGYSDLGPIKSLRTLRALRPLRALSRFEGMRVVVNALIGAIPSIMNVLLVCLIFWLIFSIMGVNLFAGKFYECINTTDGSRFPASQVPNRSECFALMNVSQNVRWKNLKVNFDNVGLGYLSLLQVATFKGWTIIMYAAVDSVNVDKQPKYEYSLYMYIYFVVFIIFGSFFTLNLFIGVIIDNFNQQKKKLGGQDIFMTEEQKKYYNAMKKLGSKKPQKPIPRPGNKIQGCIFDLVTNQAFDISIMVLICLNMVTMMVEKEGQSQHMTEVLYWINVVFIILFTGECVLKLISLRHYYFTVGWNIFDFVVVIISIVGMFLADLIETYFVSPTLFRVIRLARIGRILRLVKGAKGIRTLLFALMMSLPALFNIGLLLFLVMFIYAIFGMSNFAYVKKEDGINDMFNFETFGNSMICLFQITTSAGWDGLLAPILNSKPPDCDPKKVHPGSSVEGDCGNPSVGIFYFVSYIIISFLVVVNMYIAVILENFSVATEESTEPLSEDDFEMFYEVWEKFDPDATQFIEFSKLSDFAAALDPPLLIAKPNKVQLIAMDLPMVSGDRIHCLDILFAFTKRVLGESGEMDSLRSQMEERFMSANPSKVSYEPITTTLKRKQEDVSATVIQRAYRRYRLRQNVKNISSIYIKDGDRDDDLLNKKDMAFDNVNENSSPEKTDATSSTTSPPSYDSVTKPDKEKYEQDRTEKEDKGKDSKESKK

One assay addresses T1, Nav1.7 (or SCN9A) channel; HEK cells stably transfected with hSCN9A (Homo sapiens, UniProt Q15858).
T1 construct: expressed in transfected cells
Kind of assay: Nav1.7 block, PatchXpress 7000 automated whole-cell voltage clamp, estimated IC50 (EIC50). The settings on record: estimated IC50; hSCN9A HEK cells, PatchXpress platform; Examples 283-814. The class given is cell-based.
Take `N#Cc1cc(S(=O)(=O)Nc2ncns2)ccc1Oc1ccc(OC(F)(F)F)cc1-c1ccn[nH]1` [Example 793, 3-cyano-4-[2-(1H-pyrazol-5-yl)-4-(trifluoromethoxy)phenoxy]-N-1,2,4-thiadiazol-5-ylbenzenesulfonamide]: the negative-log IC50 (pIC50) is 8.51.
Same read-out and setting: next, `Nc1[nH]ncc1-c1cc(Cl)ccc1Oc1cc(F)c(S(=O)(=O)Nc2ncns2)cc1Cl` [Example 794, 4-[2-(5-amino-1H-pyrazol-4-yl)-4-chlorophenoxy]-5-chloro-2-fluoro-N-1,2,4-thiadiazol-5-ylbenzenesulfonamide]: 8.32.
The same measure, in the same setting: next, `Cn1nccc1-c1cc(OC(F)(F)F)ccc1Oc1ccc(S(=O)(=O)Nc2ncns2)cc1C#N` [Example 795, 3-cyano-4-[2-(1-methyl-1H-pyrazol-5-yl)-4-(trifluoromethoxy)phenoxy]-N-1,2,4-thiadiazol-5-ylbenzenesulfonamide]: 8.34; `O=S(=O)(Nc1ncns1)c1cc(Cl)c(Oc2ccc(Cl)cc2C2CCNCC2)cc1F` [Example 796, 5-chloro-4-(4-chloro-2-piperidin-4-ylphenoxy)-2-fluoro-N-1,2,4-thiadiazol-5-ylbenzenesulfonamide]: 8.68; `O=S(=O)(Nc1ccc(F)cn1)c1cc(Cl)c(Oc2ccc(C(F)(F)F)cc2C2CCNCC2)cc1F` [Example 800, 5-Chloro-2-fluoro-N-(5-fluoropyridin-2-yl)-4-[2-piperidin-4-yl-4-(trifluoromethyl)phenoxy]benzenesulfonamide]: 7.28.
Regarding `Nc1n[nH]cc1-c1cc(Cl)ccc1Oc1cc(F)c(S(=O)(=O)Nc2nncs2)cc1Cl` [Example 803, 4-[2-(5-amino-1H-pyrazol-4-yl)-4-chlorophenoxy]-5-chloro-2-fluoro-N-1,3,4-thiadiazol-2-ylbenzenesulfonamide], the pIC50 is 8.32.
The same measure, in the same setting: next, `N#Cc1cc(S(=O)(=O)Nc2ncns2)ccc1Oc1cc(F)c(Cl)cc1-c1cn[nH]c1` [Example 804, 4-[4-chloro-5-fluoro-2-(1H-pyrazol-4-yl)phenoxy]-3-cyano-N-1,2,4-thiadiazol-5-ylbenzenesulfonamide]: 8.92; `O=S(=O)(Nc1ncns1)c1cc(F)c(Oc2ccc(C(F)(F)F)cc2-c2ccnnc2)cc1F` [Example 805, 2,5-difluoro-4-[2-pyridazin-4-yl-4-(trifluoromethyl)phenoxy]-N-1,2,4-thiadiazol-5-ylbenzenesulfonamide]: 8.21; `CN1CC(n2nccc2-c2cc(F)ccc2Oc2cc(F)c(S(=O)(=O)Nc3ncns3)cc2Cl)C1` [Example 806, 5-Chloro-2-fluoro-4-{4-fluoro-2-[1-(1-methylazetidin-3-yl)-1H-pyrazol-5-yl]phenoxy}-N-1,2,4-thiadiazol-5-ylbenzenesulfonamide]: 8.27.
The same measure, in the same setting: in the case of `CN1CC(n2nccc2-c2cc(F)ccc2Oc2cc(F)c(S(=O)(=O)Nc3cscn3)cc2Cl)C1` [Example 807, 5-Chloro-2-fluoro-4-{4-fluoro-2-[1-(1-methylazetidin-3-yl)-1H-pyrazol-5-yl]phenoxy}-N-1,3-thiazol-4-ylbenzenesulfonamide] it was 7.82; in that of `O=S(=O)(Nc1cscn1)c1cc(Cl)c(Oc2ccc(F)cc2-c2ccnn2C2CNC2)cc1F` [Example 808, 4-[2-(1-Azetidin-3-yl-1H-pyrazol-5-yl)-4-fluorophenoxy]-5-chloro-2-fluoro-N-1,3-thiazol-4-ylbenzenesulfonamide], 8.15; in that of `N#Cc1cc(S(=O)(=O)Nc2cscn2)ccc1Oc1ccc(Cl)cc1-c1ccnn1C1CNC1` [Example 809, 4-[2-(1-azetidin-3-yl-1H-pyrazol-5-yl)-4-chlorophenoxy]-3-cyano-N-1,3-thiazol-4-ylbenzenesulfonamide], 7.42.
On the same count and under the same terms, next, `O=S(=O)(Nc1ncns1)c1cc(Cl)c(Oc2ccc(F)cc2-c2ccnn2C2CNC2)cc1F` [Example 810, 4-[2-(1-azetidin-3-yl-1H-pyrazol-5-yl)-4-fluorophenoxy]-5-chloro-2-fluoro-N-1,2,4-thiadiazol-5-ylbenzenesulfonamide]: 8.42; `Nc1cc(-c2cc(Cl)ccc2Oc2cc(F)c(S(=O)(=O)Nc3ccncn3)cc2Cl)ccn1` [Example 812, 4-[2-(2-aminopyridin-4-yl)-4-chlorophenoxy]-5-chloro-2-fluoro-N-pyrimidin-4-ylbenzenesulfonamide]: 8.29.
As to `Nc1cc(-c2cc(Cl)ccc2Oc2cc(F)c(S(=O)(=O)Nc3nncs3)cc2Cl)ccn1` [Example 814, 4-[2-(2-aminopyridin-4-yl)-4-chlorophenoxy]-5-chloro-2-fluoro-N-1,3,4-thiadiazol-2-ylbenzenesulfonamide], the pIC50 was 8.21.

The assay is the same for the next values; noted with them: estimated IC50; hSCN9A HEK cells, PatchXpress platform; Examples 815-1040.
As to `N#Cc1cc(S(=O)(=O)Nc2ncns2)ccc1Oc1ccc(I)cc1-c1cccc(CN2CCC2)c1` [Example 815, 4-{[3′-(azetidin-1-ylmethyl)-5-iodobiphenyl-2-yl]oxy}-3-cyano-N-1,2,4-thiadiazol-5-ylbenzenesulfonamide], the pIC50 is 9.22.
With `Cc1[nH]ncc1-c1cc(Cl)ccc1Oc1cc(F)c(S(=O)(=O)Nc2nncs2)cc1Cl` [Example 816, 5-chloro-4-[4-chloro-2-(5-methyl-1H-pyrazol-4-yl)phenoxy]-2-fluoro-N-1,3,4-thiadiazol-2-ylbenzenesulfonamide], the pIC50 is 7.96.
`Cc1nnc(NS(=O)(=O)c2cc(Cl)c(Oc3ccc(Cl)cc3-c3ccnn3C)cc2F)s1` [Example 817, 5-chloro-4-[4-chloro-2-(1-methyl-1H-pyrazol-5-yl)phenoxy]-2-fluoro-N-(5-methyl-1,3,4-thiadiazol-2-yl)benzenesulfonamide]: the pIC50 was 6.52.
Same read-out and setting: in the case of `N#Cc1cc(S(=O)(=O)Nc2nncs2)ccc1Oc1ccc(Cl)cc1-c1ccnc(N)c1` [Example 818, 4-[2-(2-aminopyridin-4-yl)-4-chlorophenoxy]-3-cyano-N-1,3,4-thiadiazol-2-ylbenzenesulfonamide] it was 6.49; in that of `COCCn1ccc(-c2cc(Cl)ccc2Oc2cc(F)c(S(=O)(=O)Nc3nncs3)cc2Cl)n1` [Example 819, 5-chloro-4-{4-chloro-2-[1-(2-methoxyethyl)-1H-pyrazol-3-yl]phenoxy}-2-fluoro-N-1,3,4-thiadiazol-2-ylbenzenesulfonamide], 5.62.
On the same count and under the same terms, in the case of `Nc1cc(-c2cc(Cl)ccc2Oc2cc(F)c(S(=O)(=O)Nc3nncs3)cc2F)ccn1` [Example 820, 4-[2-(2-aminopyridin-4-yl)-4-chlorophenoxy]-2,5-difluoro-N-1,3,4-thiadiazol-2-ylbenzenesulfonamide] it was 6.64; in that of `O=S(=O)(Nc1nncs1)c1cc(F)c(Oc2ccc(Cl)cc2-c2cn[nH]c2)cc1F` [Example 821, 4-[4-chloro-2-(1H-pyrazol-4-yl)phenoxy]-2,5-difluoro-N-1,3,4-thiadiazol-2-ylbenzenesulfonamide], 7.00; in that of `O=C(c1cccc(-c2cc(Cl)ccc2Oc2cc(F)c(S(=O)(=O)Nc3ncns3)cc2Cl)c1)N1CCC1` [Example 823, 4-{[3′-(azetidin-1-ylcarbonyl)-5-chlorobiphenyl-2-yl]oxy}-5-chloro-2-fluoro-N-1,2,4-thiadiazol-5-ylbenzenesulfonamide], 8.13.
On to `O=C(c1cccc(-c2cc(Cl)ccc2Oc2cc(F)c(S(=O)(=O)Nc3ncns3)cc2Cl)c1)N1CC(O)C1` [Example 824, 5-chloro-4-({5-chloro-3′-[(3-hydroxyazetidin-1-yl)carbonyl]biphenyl-2-yl}oxy)-2-fluoro-N-1,2,4-thiadiazol-5-ylbenzenesulfonamide], for which the pIC50 was 8.33.
Regarding `O=S(=O)(Nc1ncns1)c1ccc(Oc2ccc(Cl)cc2C2CCOCC2)c(F)c1` [Example 825, 4-[4-chloro-2-(tetrahydro-2H-pyran-4-yl)phenoxy]-3-fluoro-N-1,2,4-thiadiazol-5-ylbenzenesulfonamide], the pIC50 is 6.72.
Same read-out and setting: in the case of `N#Cc1cc(S(=O)(=O)Nc2ncns2)ccc1Oc1ccc(F)cc1-c1cc(N)n[nH]1` [Example 826, 4-[2-(3-amino-1H-pyrazol-5-yl)-4-fluorophenoxy]-3-cyano-N-1,2,4-thiadiazol-5-ylbenzenesulfonamide] it was 6.52; in that of `O=S(=O)(Nc1ncns1)c1ccc(Oc2ccc(OC(F)(F)F)cc2-c2ccn[nH]2)c(F)c1` [Example 829, 3-fluoro-4-[2-(1H-pyrazol-5-yl)-4-(trifluoromethoxy)phenoxy]-N-1,2,4-thiadiazol-5-ylbenzenesulfonamide], 7.47; in that of `Nc1cccc(-c2cc(OC(F)(F)F)ccc2Oc2cc(F)c(S(=O)(=O)Nc3ncns3)cc2F)n1` [Example 830, 4-[2-(6-aminopyridin-2-yl)-4-(trifluoromethoxy)phenoxy]-2,5-difluoro-N-1,2,4-thiadiazol-5-ylbenzenesulfonamide], 7.64.
The same measure, in the same setting: next, `O=S(=O)(Nc1nncs1)c1cc(Cl)c(Oc2ccc(Cl)cc2-c2cccc(CN3CCC3)n2)cc1F` [Example 831, 4-{2-[6-(azetidin-1-ylmethyl)pyridin-2-yl]-4-chlorophenoxy}-5-chloro-2-fluoro-N-1,3,4-thiadiazol-2-ylbenzenesulfonamide]: 7.20; `N#Cc1cc(S(=O)(=O)Nc2nncs2)ccc1Oc1ccc(Cl)cc1-c1ccnnc1` [Example 832, 4-(4-chloro-2-pyridazin-4-ylphenoxy)-3-cyano-N-1,3,4-thiadiazol-2-ylbenzenesulfonamide]: 6.38.
On the same count and under the same terms, next, `O=S(=O)(Nc1nncs1)c1cc(F)c(Oc2ccc(Cl)cc2-c2ccnc(N3CCNCC3)c2)cc1F` [Example 833, 4-[4-chloro-2-(2-piperazin-1-ylpyridin-4-yl)phenoxy]-2,5-difluoro-N-1,3,4-thiadiazol-2-ylbenzenesulfonamide]: 8.23; `N#Cc1cc(S(=O)(=O)Nc2cscn2)ccc1Oc1ccc(Cl)cc1-c1ccnc(N2CCNCC2)c1` [Example 834, 4-[4-chloro-2-(2-piperazin-1-ylpyridin-4-yl)phenoxy]-3-cyano-N-1,3-thiazol-4-ylbenzenesulfonamide]: 8.41.
